Test results from US11459318B2, “Pesticidally active pyrrole derivatives” (Syngenta Participations AG, priority 2017, dated 2022).
Where two headings read alike, the source gives them in different places.

What was measured:
Format in all cases: in vivo
[1] = tested on: Diabrotica balteata (Corn root worm); experiment: Diabrotica balteata (Corn root worm), maize sprouts sprayed, L2 larvae mortality; details: 96 h, application rate of 200 ppm, L2 larvae on maize sprouts, assessed 4 days after infestation, read-out: control (mortality)
Description: Diabrotica balteata (Corn root worm):
Maize sprouts placed onto an agar layer in 24-well microtiter plates were treated with aqueous test solutions prepared from 10,000 ppm DMSO stock solutions by spraying. After drying, the plates were infested with L2 larvae (6 to 10 per well). The samples were assessed for mortality 4 days after infestation.

[2] = tested on: Euschistus heros (Neotropical Brown Stink Bug); experiment: Euschistus heros (Neotropical Brown Stink Bug): Feeding/contact activity; details: 120 h, read-out: control (mortality)
Description: Euschistus heros (Neotropical Brown Stink Bug): Feeding/contact activity Soybean leaves on agar in 24-well microtiter plates were sprayed with aqueous test solutions prepared from 10,000 ppm DMSO stock solutions. After drying the leaves were infested with N2 nymphs. The samples were assessed for mortality 5 days after infestation.

[3] = tested on: Myzus persicae (Green peach aphid); experiment: Myzus persicae (Green peach aphid): Feeding/Contact activity; details: foliar, 144 h, read-out: control (mortality)
Description: Myzus persicae (Green peach aphid): Feeding/Contact activity Sunflower leaf discs were placed onto agar in a 24-well microtiter plate and sprayed with aqueous test solutions prepared from 10,000 ppm DMSO stock solutions. After drying, the leaf discs were infested with an aphid population of mixed ages. The samples were assessed for mortality 6 days after infestation.

[4] = tested on: Plutella xylostella (Diamond back moth); experiment: Plutella xylostella (Diamond back moth): Feeding/contact activity; details: 120 h, application rate of 200 ppm, L2 larvae on artificial diet, assessed 5 days after infestation, read-out: control (mortality)
Description: Plutella xylostella (Diamond back moth): Feeding/contact activity
24-well microtiter plates with artificial diet were treated with aqueous test solutions prepared from 10,000 ppm DMSO stock solutions by pipetting. After drying, the plates were infested with L2 larvae (10 to 15 per well). The samples were assessed for mortality 5 days after infestation.

[5] = tested on: Spodoptera littoralis (Egyptian cotton leaf worm); experiment: Spodoptera littoralis (Egyptian cotton leaf worm): Feeding/contact activity; details: foliar, 72 h, read-out: control (mortality)
Description: Spodoptera littoralis (Egyptian cotton leaf worm): Feeding/contact activity Cotton leaf discs were placed onto agar in 24-well microtiter plates and sprayed with aqueous test solutions prepared from 10,000 ppm DMSO stock solutions. After drying the leaf discs were infested with five L1 larvae. The samples were assessed for mortality 3 days after infestation.

[6] = tested on: Tetranychus urticae (Two-spotted spider mite); experiment: Tetranychus urticae (Two-spotted spider mite): Feeding/contact activity; details: foliar, 192 h, read-out: control (mortality)
Description: Tetranychus urticae (Two-spotted spider mite): Feeding/contact activity
Bean leaf discs on agar in 24-well microtiter plates were sprayed with aqueous test solutions prepared from 10,000 ppm DMSO stock solutions. After drying the leaf discs were infested with a mite population of mixed ages. The samples were assessed for mortality on mixed population (mobile stages) 8 days after infestation.

[7] = application rate of 200 ppm, N2 nymphs on soybean leaves, assessed 5 days after infestation
[8] = application rate of 200 ppm, aphid population of mixed ages on sunflower leaf discs, assessed 6 days after infestation
[9] = application rate of 200 ppm, L1 larvae on cotton leaf discs, assessed 3 days after infestation
[10] = application rate of 200 ppm, mite population of mixed ages (mobile stages) on bean leaf discs, assessed 8 days after infestation

Measured: mortality at 200 ppm

Cn1c(-n2cc(-c3ccc(Cl)c(C(=O)NC4(C#N)CC4)c3)cn2)ccc1C(F)(C(F)(F)F)C(F)(F)F [Compound 1, 2-chloro-N-(1-cyanocyclopropyl)-5-[1-[1-methyl-5-[1,2,2,2-tetrafluoro-1-(trifluoromethyl)ethyl]pyrrol-2-yl]pyrazol-4-yl]benzamide]
≥ 80%: [1] | [2]; [7] | [3]; [8] | [4] | [5]; [9] | [6]; [10]

Cn1c(C(F)(C(F)(F)F)C(F)(F)F)cc(Br)c1-n1cc(-c2ccc(Cl)c(C(=O)NC3CC3)c2)cn1 [Compound 3, 5-[1-[3-bromo-1-methyl-5-[1,2,2,2-tetrafluoro-1-(trifluoromethyl)ethyl]pyrrol-2-yl]pyrazol-4-yl]-2-chloro-N-cyclopropyl-benzamide]
≥ 80%: [1] | [2]; [7] | [4] | [5]; [9] | [6]; [10]

CN(C(=O)c1cc(-c2cnn(-c3c(Br)cc(C(F)(C(F)(F)F)C(F)(F)F)n3C)c2)ccc1Cl)C1CC1 [Compound 4, 5-[1-[3-bromo-1-methyl-5-[1,2,2,2-tetrafluoro-1-(trifluoromethyl)ethyl]pyrrol-2-yl]pyrazol-4-yl]-2-chloro-N-cyclopropyl-N-methyl-benzamide]
≥ 80%: [1] | [2]; [7] | [3]; [8] | [4] | [5]; [9] | [6]; [10]

Cn1c(-c2cc(-c3ccc(Cl)c(C(=O)NC4(C#N)CC4)c3)on2)ccc1C(F)(C(F)(F)F)C(F)(F)F [Compound 5, 2-chloro-N-(1-cyanocyclopropyl)-5-[3-[1-methyl-5-[1,2,2,2-tetrafluoro-1-(trifluoromethyl)ethyl]pyrrol-2-yl]isoxazol-5-yl]benzamide]
≥ 80%: [1] | [2]; [7] | [4] | [5]; [9] | [6]; [10]

Cn1c(C(F)(C(F)(F)F)C(F)(F)F)cc([N+](=O)[O-])c1-n1cc(-c2ccc(Cl)c(C(=O)NC3(C#N)CC3)c2)cn1 [Compound 7, 2-chloro-N-(1-cyanocyclopropyl)-5-[1-[1-methyl-3-nitro-5-[1,2,2,2-tetrafluoro-1-(trifluoromethyl)ethyl]pyrrol-2-yl]pyrazol-4-yl]benzamide]
≥ 80%: [5]; [9]

N#CCn1c(C(F)(C(F)(F)F)C(F)(F)F)cc(Br)c1-n1cc(-c2ccc(Cl)c(C(=O)NC3(C#N)CC3)c2)cn1 [Compound 13, 5-[1-[3-bromo-1-(cyanomethyl)-5-[1,2,2,2-tetrafluoro-1-(trifluoromethyl)ethyl]pyrrol-2-yl]pyrazol-4-yl]-2-chloro-N-(1-cyanocyclopropyl)benzamide]
≥ 80%: [1] | [2]; [7] | [4] | [5]; [9] | [6]; [10]

Cn1c(Br)c(Br)c(Br)c1-n1cc(-c2ccc(Cl)c(C(=O)NC3(C#N)CC3)c2)cn1 [Compound 15, 2-chloro-N-(1-cyanocyclopropyl)-5-[1-(3,4,5-tribromo-1-methyl-pyrrol-2-yl)pyrazol-4-yl]benzamide]
≥ 80%: [1] | [4] | [5]; [9]

Cn1c(C(F)(F)C(F)(F)F)cc(Br)c1-n1cc(-c2ccc(Cl)c(C(=O)NC3(C#N)CC3)c2)cn1 [Compound 31, 5-[1-[3-bromo-1-methyl-5-(1,1,2,2,2-pentafluoroethyl)pyrrol-2-yl]pyrazol-4-yl]-2-chloro-N-(1-cyanocyclopropyl)benzamide]
≥ 80%: [1] | [2]; [7] | [3]; [8] | [6]; [10]

Cn1c(SC(F)(F)F)cc(Cl)c1-n1cc(-c2ccc(Cl)c(C(=O)NC3(C#N)CC3)c2)cn1 [Compound 32, 2-chloro-5-[1-[3-chloro-1-methyl-5-(trifluoromethylsulfanyl)pyrrol-2-yl]pyrazol-4-yl]-N-(1-cyanocyclopropyl)benzamide]
≥ 80%: [1] | [2]; [7] | [3]; [8] | [5]; [9] | [6]; [10]

CC(=O)N(C(=O)c1cc(-c2cnn(-c3ccc(C(F)(C(F)(F)F)C(F)(F)F)n3C3CC3)c2)ccc1Cl)C(C)(C)C#N [Compound 35, N-acetyl-2-chloro-N-(1-cyano-1-methyl-ethyl)-5-[1-[1-cyclopropyl-5-[1,2,2,2-tetrafluoro-1-(trifluoromethyl)ethyl]pyrrol-2-yl]pyrazol-4-yl]benzamide]
≥ 80%: [2]; [7] | [3]; [8] | [5]; [9] | [6]; [10]

CC(=O)N(C(=O)c1cc(-c2cnn(-c3ccc(C(F)(C(F)(F)F)C(F)(F)F)n3C3CC3)c2)ccc1Cl)C1(C#N)CC1 [Compound 36, N-acetyl-2-chloro-N-(1-cyanocyclopropyl)-5-[1-[1-cyclopropyl-5-[1,2,2,2-tetrafluoro-1-(trifluoromethyl)ethyl]pyrrol-2-yl]pyrazol-4-yl]benzamide]
≥ 80%: [2]; [7] | [3]; [8] | [4] | [5]; [9] | [6]; [10]

CC(C)(C#N)NC(=O)c1cc(-c2cnn(-c3ccc(C(F)(C(F)(F)F)C(F)(F)F)n3C3CC3)c2)ccc1Cl [Compound 37, 2-chloro-N-(1-cyano-1-methyl-ethyl)-5-[1-[1-cyclopropyl-5-[1,2,2,2-tetrafluoro-1-(trifluoromethyl)ethyl]pyrrol-2-yl]pyrazol-4-yl]benzamide]
≥ 80%: [2]; [7] | [3]; [8] | [4] | [5]; [9] | [6]; [10]

CN(C(=O)c1cc(-c2cnn(-c3ccc(C(F)(C(F)(F)F)C(F)(F)F)n3C3CC3)c2)ccc1Cl)C1(C#N)CC1 [Compound 38, 2-chloro-N-(1-cyanocyclopropyl)-5-[1-[1-cyclopropyl-5-[1,2,2,2-tetrafluoro-1-(trifluoromethyl)ethyl]pyrrol-2-yl]pyrazol-4-yl]-N-methyl-benzamide]
≥ 80%: [2]; [7] | [3]; [8] | [4] | [5]; [9] | [6]; [10]

COC(=O)N(C(=O)c1cc(-c2cnn(-c3ccc(C(F)(C(F)(F)F)C(F)(F)F)n3C3CC3)c2)ccc1Cl)C1(C#N)CC1 [Compound 39, methyl N-[2-chloro-5-[1-[1-cyclopropyl-5-[1,2,2,2-tetrafluoro-1-(trifluoromethyl)ethyl]pyrrol-2-yl]pyrazol-4-yl]benzoyl]-N-(1-cyanocyclopropyl)carbamate]
≥ 80%: [2]; in Glycine max | [3] | [5] | [6]

N#CC1(NC(=O)c2cc(-c3cnn(-c4ccc(C(F)(C(F)(F)F)C(F)(F)F)n4C4CC4)c3)ccc2Cl)CC1 [Compound 40, 2-chloro-N-(1-cyanocyclopropyl)-5-[1-[1-cyclopropyl-5-[1,2,2,2-tetrafluoro-1-(trifluoromethyl)ethyl]pyrrol-2-yl]pyrazol-4-yl]benzamide]
≥ 80%: [2]; [7] | [4] | [5]; [9] | [6]; [10]

N#CC1(NC(=O)c2cc(-c3cnn(-c4c(Br)c(Br)c(SC(F)(F)F)n4C4CC4)c3)ccc2Cl)CC1 [Compound 41, 2-chloro-N-(1-cyanocyclopropyl)-5-[1-[3,4-dibromo-1-cyclopropyl-5-(trifluoromethylsulfanyl)pyrrol-2-yl]pyrazol-4-yl]benzamide]
≥ 80%: [1] | [2]; [7] | [4] | [5]; [9] | [6]; [10]
